{"source": "patent US20210054106A1", "about": "“OMNIPHILIC NANO-VESICLES BASED ON MODIFIED POLYSACCHARIDES FOR DELIVERY OF ACTIVE AGENTS” (THE STATE OF ISRAEL, MINISTRY OF AGRICULTURE & RURAL …, priority 2018, published 2021)", "assay": "Franz diffusion cell model, RB permeation", "format": "in vitro ADME", "settings": "sunflower oil donor, PBS pH 7.4 receptor, 32 °C, up to 16 h"}
{"smiles": "CCN(CC)c1ccc2c(-c3ccccc3C(=O)O)c3ccc(=[N+](CC)CC)cc-3oc2c1.[Cl-]", "note": "[RB, Rhodamine B]", "values": [{"measurement": "RB permeation across lipophilic membrane into aqueous phase", "value": "scarcely permeates"}]}
